According to paper PMC9299836 (eLife, 2022):

Assays:
mGluR2 [1] = molecular target: T1, mGluR2 (Mus musculus, UniProt Q14BI2, A548F); assay: Single-molecule FRET (SiMPull) of azi-CRD: population histograms and state occupancy; settings: azi-CRD, 10 μM modulator, fraction of total area;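 also: Cy3/Cy5-labelled receptor from HEK293T cell lysate captured on anti-FLAG surfaces, apparent FRET efficiency computed from donor and acceptor intensities with crosstalk correction, pooled into population histograms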
mGluR2 [2] = molecular target: T1, mGluR2; assay: smFRET of azi-CRD: cross-correlation of donor and acceptor intensities (CRD dynamics) and HMM transition density plots; settings: 0μM Glutamate + GPT/Pyruvate + 10μM BINA, N 3;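 also: single detergent-solubilized receptors captured on antibody-coated flow cells via C-terminal FLAG-tag, imaged by smFRET, donor and acceptor intensity traces from three independent biological replicates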

T1 sequence (Q14BI2 19-872 A548F): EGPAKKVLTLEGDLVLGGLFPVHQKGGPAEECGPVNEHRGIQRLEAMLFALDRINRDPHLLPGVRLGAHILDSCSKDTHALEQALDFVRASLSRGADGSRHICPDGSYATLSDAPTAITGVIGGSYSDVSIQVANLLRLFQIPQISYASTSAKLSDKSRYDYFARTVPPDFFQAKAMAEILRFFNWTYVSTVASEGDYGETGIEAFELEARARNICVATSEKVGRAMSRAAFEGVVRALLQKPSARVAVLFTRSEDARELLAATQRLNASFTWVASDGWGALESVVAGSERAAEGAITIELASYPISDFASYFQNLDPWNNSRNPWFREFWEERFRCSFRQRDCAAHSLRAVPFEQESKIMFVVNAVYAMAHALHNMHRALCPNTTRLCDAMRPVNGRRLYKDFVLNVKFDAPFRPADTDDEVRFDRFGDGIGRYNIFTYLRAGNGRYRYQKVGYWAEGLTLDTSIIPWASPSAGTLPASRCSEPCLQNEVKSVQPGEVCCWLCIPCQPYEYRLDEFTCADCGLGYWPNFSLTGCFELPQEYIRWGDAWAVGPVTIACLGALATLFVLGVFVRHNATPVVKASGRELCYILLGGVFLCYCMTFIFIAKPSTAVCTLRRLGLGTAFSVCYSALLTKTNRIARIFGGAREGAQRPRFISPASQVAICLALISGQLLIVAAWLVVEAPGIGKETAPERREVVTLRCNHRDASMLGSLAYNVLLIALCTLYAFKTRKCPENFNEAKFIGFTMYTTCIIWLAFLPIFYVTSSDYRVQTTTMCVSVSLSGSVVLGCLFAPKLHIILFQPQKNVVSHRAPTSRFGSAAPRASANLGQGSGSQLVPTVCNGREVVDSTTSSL

Mean occupancy, state 1 (inactive, FRET 0.24) (mGluR2 [1]; 0 μM glutamate): 0.3053
Mean occupancy, state 2 (intermediate 1, FRET 0.38) (mGluR2 [1]; 0 μM glutamate): 0.5199
Mean occupancy, state 3 (intermediate 2, FRET 0.70) (mGluR2 [1]; 0 μM glutamate): 0.1483
Mean occupancy, state 4 (active, FRET 0.87) (mGluR2 [1]; 0 μM glutamate): 0.02653
Mean occupancy, state 1 (inactive, FRET 0.24) (mGluR2 [1]; 1000 μM glutamate): 0.00296
Mean occupancy, state 2 (intermediate 1, FRET 0.38) (mGluR2 [1]; 1000 μM glutamate): 0.03751
Mean occupancy, state 3 (intermediate 2, FRET 0.70) (mGluR2 [1]; 1000 μM glutamate): 0.2179
Mean occupancy, state 4 (active, FRET 0.87) (mGluR2 [1]; 1000 μM glutamate): 0.7416
Cross Correlation, Mean (mGluR2 [2]; Time 0 s): -0.309
Cross Correlation, Mean (mGluR2 [2]; Time 0.05 s): -0.1732
Cross Correlation, Mean (mGluR2 [2]; Time 0.1 s): -0.1405
Cross Correlation, Mean (mGluR2 [2]; Time 0.15 s): -0.1268
Cross Correlation, Mean (mGluR2 [2]; Time 0.2 s): -0.1138
Cross Correlation, Mean (mGluR2 [2]; Time 0.25 s): -0.1079
Cross Correlation, Mean (mGluR2 [2]; Time 0.3 s): -0.1007
Cross Correlation, Mean (mGluR2 [2]; Time 0.35 s): -0.09667
Cross Correlation, Mean (mGluR2 [2]; Time 0.4 s): -0.08889
Cross Correlation, Mean (mGluR2 [2]; Time 0.45 s): -0.08933
Cross Correlation, Mean (mGluR2 [2]; Time 0.5 s): -0.08286
Cross Correlation, Mean (mGluR2 [2]; Time 0.55 s): -0.07956
Cross Correlation, Mean (mGluR2 [2]; Time 0.6 s): -0.07731
Cross Correlation, Mean (mGluR2 [2]; Time 0.65 s): -0.07407
Cross Correlation, Mean (mGluR2 [2]; Time 0.7 s): -0.07365
Cross Correlation, Mean (mGluR2 [2]; Time 0.75 s): -0.06697
Cross Correlation, Mean (mGluR2 [2]; Time 0.8 s): -0.06199
Cross Correlation, Mean (mGluR2 [2]; Time 0.85 s): -0.06042
Cross Correlation, Mean (mGluR2 [2]; Time 0.9 s): -0.05216
Cross Correlation, Mean (mGluR2 [2]; Time 0.95 s): -0.05689
Cross Correlation, Mean (mGluR2 [2]; Time 1 s): -0.0539
Cross Correlation, Mean (mGluR2 [2]; Time 1.05 s): -0.05356
Cross Correlation, Mean (mGluR2 [2]; Time 1.1 s): -0.0518
Cross Correlation, Mean (mGluR2 [2]; Time 1.15 s): -0.0477
Cross Correlation, Mean (mGluR2 [2]; Time 1.2 s): -0.04715
Cross Correlation, Mean (mGluR2 [2]; Time 1.25 s): -0.04267
Cross Correlation, Mean (mGluR2 [2]; Time 1.3 s): -0.04926
Cross Correlation, Mean (mGluR2 [2]; Time 1.35 s): -0.04133
Cross Correlation, Mean (mGluR2 [2]; Time 1.4 s): -0.03906
Cross Correlation, Mean (mGluR2 [2]; Time 1.45 s): -0.0385
Cross Correlation, Mean (mGluR2 [2]; Time 1.5 s): -0.035
Cross Correlation, Mean (mGluR2 [2]; Time 1.55 s): -0.03506
Cross Correlation, Mean (mGluR2 [2]; Time 1.6 s): -0.03291
Cross Correlation, Mean (mGluR2 [2]; Time 1.65 s): -0.03291
Cross Correlation, Mean (mGluR2 [2]; Time 1.7 s): -0.03331
Cross Correlation, Mean (mGluR2 [2]; Time 1.75 s): -0.03095
Cross Correlation, Mean (mGluR2 [2]; Time 1.8 s): -0.02869
Cross Correlation, Mean (mGluR2 [2]; Time 1.85 s): -0.03476
Cross Correlation, Mean (mGluR2 [2]; Time 1.9 s): -0.02485
Cross Correlation, Mean (mGluR2 [2]; Time 1.95 s): -0.02573
Cross Correlation, Mean (mGluR2 [2]; Time 2 s): -0.0316
Cross Correlation, Mean (mGluR2 [2]; Time 2.05 s): -0.03349
Cross Correlation, Mean (mGluR2 [2]; Time 2.1 s): -0.02361
Cross Correlation, Mean (mGluR2 [2]; Time 2.15 s): -0.02192
Cross Correlation, Mean (mGluR2 [2]; Time 2.2 s): -0.02164
Cross Correlation, Mean (mGluR2 [2]; Time 2.25 s): -0.01683
SMILES: Cc1c(OCc2cccc(-c3ccc(C(=O)O)cc3)c2)cc2c(c1C)C(=O)C(C1CCCC1)C2 (stereo not drawn) [BINA]
